From PubChem BioAssay AID256 (DTP/NCI, 2004)
Values joined by “and” are separate entries in the source; they are usually repeats but may differ in a detail not shown here. Equal entries are not always repeated. Inconclusive results and toxic doses are left out. How the source made its calls: active means survival T/C of 150% or more; inactive means T/C below 125% in these data. Non-standard residues stand in square brackets, D forms with d. Residues, ends and D or L forms follow the SMILES beside them. ξ: configuration not given here. *: point of attachment. Hexanoyl = CCCCCC(=O)*; ξP = O=C(O)C1CCCN1; Ava = NCCCCC(=O)O

System: CD2F1 mice, L1210 leukemia ip, survival T/C
Experiment: NCI In Vivo Anticancer Drug Screen. Data for tumor model L1210 Leukemia (intraperitoneal) in CD2F1 (CDF1) mice
Conditions: higher = longer survival
Outline: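 Vehicle-treated tumor-bearing mice served as controls (C) for compound-treated mice (T). Reported figure is T divided by C.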

[1] = endpoint: mean survival time, dose: 100.0 mg/kg/injection, schedule: Q04DX003 (ip), vehicle: saline with Tween-80
[2] = endpoint: mean survival time, dose: 100.0 mg/kg/injection, schedule: Q01DX001 (ip), vehicle: saline
[3] = endpoint: mean survival time, dose: 200.0 mg/kg/injection, schedule: Q01DX001 (ip), vehicle: saline
[4] = endpoint: mean survival time, dose: 400.0 mg/kg/injection, schedule: Q01DX001 (ip), vehicle: saline
[5] = endpoint: mean survival time, dose: 50.0 mg/kg/injection, schedule: Q01DX009 (ip), vehicle: Klucel (hydroxypropylcellulose) (HPC)
[6] = endpoint: mean survival time, dose: 100.0 mg/kg/injection, schedule: Q01DX009 (ip), vehicle: Klucel (hydroxypropylcellulose) (HPC)
[7] = endpoint: mean survival time, dose: 200.0 mg/kg/injection, schedule: Q01DX009 (ip), vehicle: Klucel (hydroxypropylcellulose) (HPC)
[8] = endpoint: mean survival time, dose: 100.0 mg/kg/injection, schedule: Q04DX003 (ip), vehicle: saline
[9] = endpoint: mean survival time, dose: 200.0 mg/kg/injection, schedule: Q04DX003 (ip), vehicle: saline
[10] = endpoint: mean survival time, dose: 400.0 mg/kg/injection, schedule: Q04DX003 (ip), vehicle: saline
[11] = endpoint: mean survival time, dose: 200.0 mg/kg/injection, schedule: Q04DX003 (ip), vehicle: saline with Tween-80

Measured: T/C

COCCOCCOc1cc(-c2c(OCCOCCOC)ccc3ccccc23)c2ccccc2c1
inactive: endpoint: mean survival time, dose: 100.0 mg/kg/injection, schedule: Q01DX001 (ip), vehicle: saline with Tween-80 100 % of control | endpoint: mean survival time, dose: 200.0 mg/kg/injection, schedule: Q01DX001 (ip), vehicle: saline with Tween-80 100 % of control | endpoint: mean survival time, dose: 400.0 mg/kg/injection, schedule: Q01DX001 (ip), vehicle: saline with Tween-80 100 % of control

O=C1C=CC(=O)C(c2cn(C3CC(O)C(CO)O3)c(=O)[nH]c2=O)=C1 (stereo unspecified)
inactive: endpoint: median survival time, dose: 12.5 mg/kg/injection, schedule: Q01DX005 (ip), vehicle: saline with Tween-80 111 % of control | endpoint: median survival time, dose: 25.0 mg/kg/injection, schedule: Q01DX005 (ip), vehicle: saline with Tween-80 111 % of control | endpoint: median survival time, dose: 50.0 mg/kg/injection, schedule: Q01DX005 (ip), vehicle: saline with Tween-80 108 % of control | endpoint: median survival time, dose: 100.0 mg/kg/injection, schedule: Q01DX005 (ip), vehicle: saline with Tween-80 121 % of control | endpoint: median survival time, dose: 200.0 mg/kg/injection, schedule: Q01DX005 (ip), vehicle: saline with Tween-80 105 % of control

O=C1C2C3CCC(O3)C2C(=O)N1CO (stereo unspecified)
inactive: endpoint: mean survival time, dose: 25.0 mg/kg/injection, schedule: Q04DX002 (ip), vehicle: saline with Tween-80 110 % of control | endpoint: mean survival time, dose: 50.0 mg/kg/injection, schedule: Q04DX002 (ip), vehicle: saline with Tween-80 98 % of control | endpoint: mean survival time, dose: 100.0 mg/kg/injection, schedule: Q04DX002 (ip), vehicle: saline with Tween-80 91 % of control

CC(NC1=NCCO1)c1cccc2ccccc12 (stereo unspecified)
inactive: [1] 89 % of control

Nc1nc(N)c(CCCc2ccccc2)c(N)n1
inactive: endpoint: mean survival time, dose: 2.0 mg/kg/injection, schedule: Q04DX002 (ip), vehicle: Klucel (hydroxypropylcellulose) (HPC) 104 % of control | endpoint: mean survival time, dose: 4.0 mg/kg/injection, schedule: Q04DX002 (ip), vehicle: Klucel (hydroxypropylcellulose) (HPC) 101 % of control | endpoint: mean survival time, dose: 8.0 mg/kg/injection, schedule: Q04DX002 (ip), vehicle: Klucel (hydroxypropylcellulose) (HPC) 109 % of control | endpoint: mean survival time, dose: 16.0 mg/kg/injection, schedule: Q04DX002 (ip), vehicle: Klucel (hydroxypropylcellulose) (HPC) 98 % of control | endpoint: mean survival time, dose: 32.0 mg/kg/injection, schedule: Q04DX002 (ip), vehicle: Klucel (hydroxypropylcellulose) (HPC) 98 % of control | endpoint: mean survival time, dose: 64.0 mg/kg/injection, schedule: Q04DX002 (ip), vehicle: Klucel (hydroxypropylcellulose) (HPC) 98 % of control

Nc1nc2c(c(=O)[nH]1)N(CCCCCO)C(CNc1ccc(C(=O)NC(CCC(=O)O)C(=O)O)cc1)CN2 (stereo unspecified)
inactive: [2] 97 % of control | [3] 103 % of control | [4] 97 % of control

c1ccc(C2CO2)cc1 (stereo unspecified)
inactive: endpoint: mean survival time, dose: 150.0 mg/kg/injection, schedule: Q04DX003 (ip), vehicle: Klucel (hydroxypropylcellulose) (HPC) 102 % of control | endpoint: mean survival time, dose: 225.0 mg/kg/injection, schedule: Q04DX003 (ip), vehicle: Klucel (hydroxypropylcellulose) (HPC) 102 % of control

O=C(OCC1OC([Se])C(OC(=O)c2ccccc2)C(OC(=O)c2ccccc2)C1OC(=O)c1ccccc1)c1ccccc1.[CH3][Sb][CH3] (stereo unspecified)
inactive: [5] 100 % of control | [6] 103 % of control | [7] 100 % of control

O=S(=O)(O)c1ccc(N=Nc2cc(O)cc3ccccc23)cc1
inactive: endpoint: mean survival time, dose: 6.25 mg/kg/injection, schedule: Q01DX001 (ip), vehicle: saline 96 % of control | endpoint: mean survival time, dose: 12.5 mg/kg/injection, schedule: Q01DX001 (ip), vehicle: saline 92 % of control | endpoint: mean survival time, dose: 25.0 mg/kg/injection, schedule: Q01DX001 (ip), vehicle: saline 88 % of control | [2] 86 % of control | [3] 88 % of control | [4] 96 % of control

Cc1cc(N2C(=O)CCSC2=S)ccc1Cl
inactive: endpoint: mean survival time, dose: 12.5 mg/kg/injection, schedule: Q01DX009 (ip), vehicle: Klucel (hydroxypropylcellulose) (HPC) 101 % of control and 105 % of control | endpoint: mean survival time, dose: 25.0 mg/kg/injection, schedule: Q01DX009 (ip), vehicle: Klucel (hydroxypropylcellulose) (HPC) 95 % of control and 103 % of control and 109 % of control | [5] 113 % of control and 97 % of control | [6] 122 % of control and 123 % of control and 97 % of control | [7] 95 % of control and 107 % of control | endpoint: mean survival time, dose: 400.0 mg/kg/injection, schedule: Q01DX009 (ip), vehicle: Klucel (hydroxypropylcellulose) (HPC) 102 % of control

COCCCN=C(N)N
inactive: endpoint: mean survival time, dose: 50.0 mg/kg/injection, schedule: Q01DX009 (ip), vehicle: saline 102 % of control | endpoint: mean survival time, dose: 100.0 mg/kg/injection, schedule: Q01DX009 (ip), vehicle: saline 105 % of control | endpoint: mean survival time, dose: 200.0 mg/kg/injection, schedule: Q01DX009 (ip), vehicle: saline 96 % of control

COc1ccccc1C(=O)C1N=C(c2ccccc2)OC1=O (stereo unspecified)
inactive: [2] 98 % of control | [3] 97 % of control | [4] 97 % of control

CCCCCC(=O)NCC(=O)N1CCCC1C(=O)NCCCCC(=O)OC (stereo unspecified) (Hexanoyl-Gly-[ξP]-[Ava]-OMe)
inactive: [8] 98 % of control | [9] 107 % of control | [10] 103 % of control

CC(C)C[P+](c1ccccc1)(c1ccccc1)c1ccccc1
inactive: endpoint: mean survival time, dose: 75.0 mg/kg/injection, schedule: Q01DX001 (ip), vehicle: other 96 % of control

CCN(CC)CCCC(C)Nc1ccnc2cc(Cl)ccc12 (stereo unspecified)
inactive: endpoint: mean survival time, dose: 100.0 mg/kg/injection, schedule: Q04DX002 (ip), vehicle: saline 91 % of control

O=C(O)/C(=C(/c1ccccc1)c1ccc(Cl)cc1)c1ccccc1
inactive: [1] 98 % of control | [11] 96 % of control | endpoint: mean survival time, dose: 400.0 mg/kg/injection, schedule: Q04DX003 (ip), vehicle: saline with Tween-80 98 % of control

NC(=S)c1cccc(OCCOc2cccc3ccccc23)c1
inactive: endpoint: mean survival time, dose: 25.0 mg/kg/injection, schedule: Q01DX009 (ip), vehicle: saline with Tween-80 92 % of control | endpoint: mean survival time, dose: 50.0 mg/kg/injection, schedule: Q01DX009 (ip), vehicle: saline with Tween-80 95 % of control | endpoint: mean survival time, dose: 100.0 mg/kg/injection, schedule: Q01DX009 (ip), vehicle: saline with Tween-80 88 % of control

NCCNc1ccccc1C(=O)O
inactive: endpoint: median survival time, dose: 50.0 mg/kg/injection, schedule: Q04DX002 (ip), vehicle: saline with Tween-80 111 % of control | endpoint: median survival time, dose: 100.0 mg/kg/injection, schedule: Q04DX002 (ip), vehicle: saline with Tween-80 100 % of control | endpoint: median survival time, dose: 200.0 mg/kg/injection, schedule: Q04DX002 (ip), vehicle: saline with Tween-80 100 % of control | endpoint: median survival time, dose: 400.0 mg/kg/injection, schedule: Q04DX002 (ip), vehicle: saline with Tween-80 111 % of control

COc1ccc2nc3cc(Cl)ccc3c(Nc3ccc(NC(C)=O)cc3)c2n1
inactive: endpoint: mean survival time, dose: 25.0 mg/kg/injection, schedule: Q01DX009 (ip), vehicle: other 92 % of control | endpoint: mean survival time, dose: 50.0 mg/kg/injection, schedule: Q01DX009 (ip), vehicle: other 86 % of control | endpoint: mean survival time, dose: 100.0 mg/kg/injection, schedule: Q01DX009 (ip), vehicle: other 94 % of control

C=C1C(=O)OC2CCN3CC=C(COC(=O)C(C)(O)C4(CO4)C1C)C23 (stereo unspecified)
inactive: endpoint: mean survival time, dose: 75.0 mg/kg/injection, schedule: Q01DX001 (ip), vehicle: saline 107 % of control

Cc1noc(/N=C/c2cccc(Cl)c2)c1C
inactive: [8] 96 % of control | [9] 101 % of control | [10] 101 % of control

CCCc1nc(N)[nH]c(=O)c1CCCCCCCCCCCc1ccccc1
inactive: endpoint: mean survival time, dose: 75.0 mg/kg/injection, schedule: Q01DX001 (ip), vehicle: saline with Tween-80 98 % of control | endpoint: mean survival time, dose: 150.0 mg/kg/injection, schedule: Q01DX001 (ip), vehicle: saline with Tween-80 97 % of control | endpoint: mean survival time, dose: 300.0 mg/kg/injection, schedule: Q01DX001 (ip), vehicle: saline with Tween-80 95 % of control

CC12CCC(CC1CO)C2 (stereo unspecified)
inactive: [1] 88 % of control | [11] 87 % of control
